Measurements as given in ChEMBL document CHEMBL5465560, “Selectivity Literature for EUbOPEN Chemogenomic Library” (2024).
Each block holds one compound with its values, some of them ahead of it.

How the values were obtained:
[1] = target: T1, Ephrin type-A receptor 3 (Homo sapiens) (UniProt P29320); experiment: Selectivity interaction (Ambit KINOMEscan and KiNATiv profiling in Jurkat cells) EUB0000090b EPHA3; format: cell-based; settings: at 1 µM
T1 sequence (whole entry): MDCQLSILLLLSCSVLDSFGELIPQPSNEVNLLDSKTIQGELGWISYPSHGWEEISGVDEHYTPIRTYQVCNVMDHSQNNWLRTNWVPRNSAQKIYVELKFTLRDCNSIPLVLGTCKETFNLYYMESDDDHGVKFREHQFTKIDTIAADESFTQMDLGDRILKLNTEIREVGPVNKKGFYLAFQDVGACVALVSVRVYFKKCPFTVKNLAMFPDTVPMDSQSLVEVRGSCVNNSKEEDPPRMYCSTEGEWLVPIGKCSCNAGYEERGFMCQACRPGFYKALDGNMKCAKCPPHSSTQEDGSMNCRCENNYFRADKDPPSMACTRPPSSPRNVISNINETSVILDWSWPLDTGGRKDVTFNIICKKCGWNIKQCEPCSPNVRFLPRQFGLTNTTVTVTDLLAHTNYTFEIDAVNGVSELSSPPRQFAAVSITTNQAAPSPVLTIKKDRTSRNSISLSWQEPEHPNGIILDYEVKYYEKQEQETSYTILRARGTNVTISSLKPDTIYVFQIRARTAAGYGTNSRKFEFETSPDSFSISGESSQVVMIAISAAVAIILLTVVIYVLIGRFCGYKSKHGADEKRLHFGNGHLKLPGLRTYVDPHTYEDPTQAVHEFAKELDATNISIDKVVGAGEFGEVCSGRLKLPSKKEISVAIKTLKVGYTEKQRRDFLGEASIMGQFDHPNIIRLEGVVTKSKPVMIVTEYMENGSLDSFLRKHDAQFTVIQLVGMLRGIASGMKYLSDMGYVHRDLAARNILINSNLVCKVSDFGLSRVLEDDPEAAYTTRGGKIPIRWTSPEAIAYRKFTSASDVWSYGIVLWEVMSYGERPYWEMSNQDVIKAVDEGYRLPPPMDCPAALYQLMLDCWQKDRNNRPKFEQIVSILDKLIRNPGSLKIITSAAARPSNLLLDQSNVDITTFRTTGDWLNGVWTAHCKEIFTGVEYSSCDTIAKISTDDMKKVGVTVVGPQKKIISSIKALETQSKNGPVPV

Activated CDC42 kinase 1 = Activated CDC42 kinase 1 (Homo sapiens, UniProt Q07912)
Chain of Activated CDC42 kinase 1 (Q07912 whole entry): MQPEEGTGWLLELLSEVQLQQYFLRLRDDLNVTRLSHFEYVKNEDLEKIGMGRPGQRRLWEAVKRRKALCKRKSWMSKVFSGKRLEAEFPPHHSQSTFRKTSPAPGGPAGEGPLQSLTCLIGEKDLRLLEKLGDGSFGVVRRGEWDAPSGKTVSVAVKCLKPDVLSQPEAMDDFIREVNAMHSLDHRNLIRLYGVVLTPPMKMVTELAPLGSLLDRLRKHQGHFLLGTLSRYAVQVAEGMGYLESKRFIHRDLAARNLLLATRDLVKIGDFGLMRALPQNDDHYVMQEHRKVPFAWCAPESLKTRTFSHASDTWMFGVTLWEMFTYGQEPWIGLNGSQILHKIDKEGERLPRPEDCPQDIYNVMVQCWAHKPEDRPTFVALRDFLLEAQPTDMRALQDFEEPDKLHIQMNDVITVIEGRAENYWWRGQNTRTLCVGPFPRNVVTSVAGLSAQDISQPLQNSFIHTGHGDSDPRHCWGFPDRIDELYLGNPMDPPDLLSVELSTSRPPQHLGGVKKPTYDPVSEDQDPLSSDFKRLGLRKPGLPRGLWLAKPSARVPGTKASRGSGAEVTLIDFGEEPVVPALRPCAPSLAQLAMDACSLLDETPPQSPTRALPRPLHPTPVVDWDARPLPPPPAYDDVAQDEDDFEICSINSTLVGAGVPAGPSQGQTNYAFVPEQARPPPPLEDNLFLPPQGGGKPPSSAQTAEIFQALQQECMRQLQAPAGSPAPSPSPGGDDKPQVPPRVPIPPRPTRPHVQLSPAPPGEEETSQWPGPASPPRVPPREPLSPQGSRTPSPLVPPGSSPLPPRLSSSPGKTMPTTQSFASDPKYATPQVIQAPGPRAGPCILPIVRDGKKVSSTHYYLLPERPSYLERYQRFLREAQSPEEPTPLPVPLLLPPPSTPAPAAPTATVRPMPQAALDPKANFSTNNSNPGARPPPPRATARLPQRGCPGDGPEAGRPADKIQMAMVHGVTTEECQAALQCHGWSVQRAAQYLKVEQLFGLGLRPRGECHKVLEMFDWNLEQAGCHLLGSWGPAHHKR

[2] = target: T2, Ephrin type-A receptor 8 (Homo sapiens) (UniProt P29322); experiment: Selectivity interaction (Kinase panel (Z-LYTE Assay)) EUB0001632a EPHA8; settings: at 10 µM
T2 sequence (whole entry): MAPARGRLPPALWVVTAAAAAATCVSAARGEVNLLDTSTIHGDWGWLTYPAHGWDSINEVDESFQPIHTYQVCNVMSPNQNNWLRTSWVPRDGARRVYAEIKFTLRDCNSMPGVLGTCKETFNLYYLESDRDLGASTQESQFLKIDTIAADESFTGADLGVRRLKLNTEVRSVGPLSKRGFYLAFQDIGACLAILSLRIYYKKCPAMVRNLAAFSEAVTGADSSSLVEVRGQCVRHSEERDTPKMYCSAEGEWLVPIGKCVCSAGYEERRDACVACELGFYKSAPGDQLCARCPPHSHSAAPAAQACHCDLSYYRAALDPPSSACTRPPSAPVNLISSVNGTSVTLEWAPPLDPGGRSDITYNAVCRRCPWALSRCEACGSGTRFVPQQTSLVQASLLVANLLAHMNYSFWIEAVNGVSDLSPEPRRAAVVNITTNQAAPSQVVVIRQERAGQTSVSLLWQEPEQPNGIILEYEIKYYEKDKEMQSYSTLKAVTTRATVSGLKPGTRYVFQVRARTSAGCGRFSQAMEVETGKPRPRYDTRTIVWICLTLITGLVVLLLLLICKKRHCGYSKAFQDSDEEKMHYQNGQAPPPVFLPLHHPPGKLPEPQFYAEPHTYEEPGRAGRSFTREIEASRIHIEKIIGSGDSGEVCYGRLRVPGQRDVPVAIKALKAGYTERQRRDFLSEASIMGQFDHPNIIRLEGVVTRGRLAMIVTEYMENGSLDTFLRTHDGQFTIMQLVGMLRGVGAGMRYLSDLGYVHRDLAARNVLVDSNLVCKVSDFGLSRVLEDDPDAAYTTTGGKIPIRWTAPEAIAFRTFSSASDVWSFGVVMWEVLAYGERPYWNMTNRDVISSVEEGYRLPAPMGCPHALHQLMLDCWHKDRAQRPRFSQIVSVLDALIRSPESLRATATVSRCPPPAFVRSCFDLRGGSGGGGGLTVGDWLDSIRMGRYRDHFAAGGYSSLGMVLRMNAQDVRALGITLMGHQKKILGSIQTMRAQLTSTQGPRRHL

[3] = target: Mitogen-activated protein kinase 9 (Homo sapiens, UniProt P45984); experiment: Selectivity interaction (Kinase panel (Z-LYTE Assay)) EUB0001632a MAPK9; settings: at 10 µM
Chain of Mitogen-activated protein kinase 9 (P45984 whole entry, looked up): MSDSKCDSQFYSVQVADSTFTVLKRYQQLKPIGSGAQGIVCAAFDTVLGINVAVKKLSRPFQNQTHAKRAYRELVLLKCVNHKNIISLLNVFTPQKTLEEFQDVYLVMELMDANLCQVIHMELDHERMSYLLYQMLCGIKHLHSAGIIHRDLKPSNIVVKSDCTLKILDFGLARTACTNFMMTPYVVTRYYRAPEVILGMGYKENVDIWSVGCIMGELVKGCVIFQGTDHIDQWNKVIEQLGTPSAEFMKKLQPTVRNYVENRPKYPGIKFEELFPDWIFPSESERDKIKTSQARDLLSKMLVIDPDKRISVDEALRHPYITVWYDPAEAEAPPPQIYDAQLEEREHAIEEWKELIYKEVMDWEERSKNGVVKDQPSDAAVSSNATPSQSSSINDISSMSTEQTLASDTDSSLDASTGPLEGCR

[4] = target: Glycogen synthase kinase-3 beta (Homo sapiens, UniProt P49841); experiment: Selectivity interaction (Upstate Kinase Profiler service (Millipore)) EUB0000056c GSK3B; settings: at 1 µM
Chain of Glycogen synthase kinase-3 beta (P49841 whole entry, looked up): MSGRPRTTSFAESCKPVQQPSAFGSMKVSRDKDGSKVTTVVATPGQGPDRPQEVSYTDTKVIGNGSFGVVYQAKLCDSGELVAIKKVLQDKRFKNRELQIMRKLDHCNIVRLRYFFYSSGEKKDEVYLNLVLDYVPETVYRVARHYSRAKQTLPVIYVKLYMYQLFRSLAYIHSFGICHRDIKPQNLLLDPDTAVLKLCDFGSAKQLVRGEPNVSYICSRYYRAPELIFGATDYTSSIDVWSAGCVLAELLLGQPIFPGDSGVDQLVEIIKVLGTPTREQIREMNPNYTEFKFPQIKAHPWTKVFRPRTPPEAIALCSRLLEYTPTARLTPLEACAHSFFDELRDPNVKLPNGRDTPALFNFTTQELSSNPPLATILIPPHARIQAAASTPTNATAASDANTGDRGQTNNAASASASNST

[5] = target: CDK4/Cyclin D3 (Homo sapiens) (UniProt P11802+P30281); experiment: (§1) Selectivity interaction (KinomeScan (DiscoverX)) EUB0000655a CDK4; format: protein-complex assay; settings: at 10 µM
[6] = target: Cyclin-dependent kinase 4/cyclin D1 (Homo sapiens) (UniProt P11802+P24385); experiment: as §1; format: protein-complex assay; settings: at 10 µM
[7] = target: T3, Uncharacterized serine/threonine-protein kinase SBK3 (Homo sapiens) (UniProt P0C264); experiment: Selectivity interaction (KinomeScan (DiscoverX)) EUB0001619a SBK3; settings: at 1 µM
T3 sequence (whole entry): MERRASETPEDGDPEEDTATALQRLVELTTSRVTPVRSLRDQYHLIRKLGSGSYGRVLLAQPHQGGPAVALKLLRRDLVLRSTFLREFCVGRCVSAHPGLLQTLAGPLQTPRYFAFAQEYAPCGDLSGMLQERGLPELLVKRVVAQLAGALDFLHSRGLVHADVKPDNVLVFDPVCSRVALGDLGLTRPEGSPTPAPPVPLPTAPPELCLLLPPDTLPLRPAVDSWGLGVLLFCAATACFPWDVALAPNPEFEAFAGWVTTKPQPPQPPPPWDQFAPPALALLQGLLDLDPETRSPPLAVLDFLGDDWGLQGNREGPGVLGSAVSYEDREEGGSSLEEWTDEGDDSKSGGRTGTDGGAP

[8] = target: Platelet-derived growth factor receptor beta (Homo sapiens, UniProt P09619); experiment: Selectivity interaction (SelectScreen profiling (Invitrogen)) EUB0000607a PDGFRB; settings: at 2 µM
Chain of Platelet-derived growth factor receptor beta (P09619 whole entry): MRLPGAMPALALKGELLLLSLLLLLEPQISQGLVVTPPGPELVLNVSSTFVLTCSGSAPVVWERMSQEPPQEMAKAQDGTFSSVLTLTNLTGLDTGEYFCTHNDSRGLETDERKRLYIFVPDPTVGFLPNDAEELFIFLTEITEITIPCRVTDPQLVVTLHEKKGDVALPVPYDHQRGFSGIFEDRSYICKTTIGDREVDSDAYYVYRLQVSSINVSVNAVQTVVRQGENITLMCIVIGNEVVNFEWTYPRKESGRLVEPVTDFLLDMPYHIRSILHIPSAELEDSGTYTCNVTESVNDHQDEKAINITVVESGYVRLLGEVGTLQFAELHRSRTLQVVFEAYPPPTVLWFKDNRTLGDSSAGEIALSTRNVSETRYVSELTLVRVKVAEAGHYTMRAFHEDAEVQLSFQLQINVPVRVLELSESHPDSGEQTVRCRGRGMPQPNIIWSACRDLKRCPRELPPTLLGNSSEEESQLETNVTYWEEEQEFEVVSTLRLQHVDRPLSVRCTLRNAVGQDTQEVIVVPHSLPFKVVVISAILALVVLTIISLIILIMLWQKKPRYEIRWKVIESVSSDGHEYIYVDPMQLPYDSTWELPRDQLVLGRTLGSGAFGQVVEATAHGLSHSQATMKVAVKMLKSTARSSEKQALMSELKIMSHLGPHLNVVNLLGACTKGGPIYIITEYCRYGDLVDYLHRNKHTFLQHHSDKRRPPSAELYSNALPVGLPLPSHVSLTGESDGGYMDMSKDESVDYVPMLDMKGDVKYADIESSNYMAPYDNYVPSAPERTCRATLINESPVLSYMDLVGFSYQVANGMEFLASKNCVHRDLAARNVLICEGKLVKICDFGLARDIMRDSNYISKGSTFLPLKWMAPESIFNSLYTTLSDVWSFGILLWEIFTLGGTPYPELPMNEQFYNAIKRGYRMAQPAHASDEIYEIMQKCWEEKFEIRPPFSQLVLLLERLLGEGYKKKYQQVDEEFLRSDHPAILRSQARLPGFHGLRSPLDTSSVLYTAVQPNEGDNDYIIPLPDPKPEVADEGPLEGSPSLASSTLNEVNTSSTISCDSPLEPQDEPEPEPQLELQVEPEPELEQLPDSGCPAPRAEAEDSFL

[9] = target: Calcium/calmodulin-dependent protein kinase kinase 2 (Homo sapiens) (UniProt Q96RR4); experiment: Selectivity interaction (Kinase panel (KiNativ target engagement assay in Jurkat cells)) EUB0001635a CAMKK2; format: cell-based; settings: Selectivity number of off-targets 0.0, Selectivity number of targets 233.0, Source Knowledge https://www.sciencedirect.com/science/article/pii/S2451945619300674?via%3Dihub, at 1 µM
Chain of Calcium/calmodulin-dependent protein kinase kinase 2 (Homo sapiens) (Q96RR4 2-588 limits assumed): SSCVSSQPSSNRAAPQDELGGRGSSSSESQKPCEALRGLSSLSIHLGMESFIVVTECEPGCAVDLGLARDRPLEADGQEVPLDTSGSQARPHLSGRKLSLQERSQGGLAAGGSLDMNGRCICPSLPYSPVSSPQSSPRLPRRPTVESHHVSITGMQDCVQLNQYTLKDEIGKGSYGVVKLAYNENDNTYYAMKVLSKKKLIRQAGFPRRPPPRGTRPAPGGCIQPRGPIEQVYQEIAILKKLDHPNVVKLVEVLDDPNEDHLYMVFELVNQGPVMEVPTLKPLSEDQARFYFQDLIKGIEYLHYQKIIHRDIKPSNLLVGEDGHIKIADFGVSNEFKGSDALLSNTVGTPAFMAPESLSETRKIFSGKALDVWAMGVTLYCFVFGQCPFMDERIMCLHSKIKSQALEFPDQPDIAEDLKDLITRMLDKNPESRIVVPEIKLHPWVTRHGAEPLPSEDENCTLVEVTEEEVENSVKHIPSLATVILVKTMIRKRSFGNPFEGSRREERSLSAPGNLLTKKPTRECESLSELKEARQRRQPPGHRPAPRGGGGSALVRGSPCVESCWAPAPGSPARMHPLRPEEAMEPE

SMILES: CN(C)C/C=C/C(=O)Nc1ccc(C(=O)N2CCCC(Nc3ncc(Cl)c(-c4c[nH]c5ccccc45)n3)C2)cc1 (stereo not given)
% of control [1]: 89%

IC50 (Activated CDC42 kinase 1): > 10 µM
SMILES: CCc1cccc(CC)c1NC(=O)c1nn(C)c2c1CCc1cnc(Nc3ccc(C(=O)NC4CCN(C)CC4)cc3OC(F)(F)F)nc1-2

% of control [2]: -0.692%
% of control [3]: 5.25%
SMILES: Cn1cc(-n2cnc3c(NCc4nc5cc(Cl)c(Cl)cc5[nH]4)nc(N4CCOCC4)nc32)cn1

% of inhibition [4]: 11%
SMILES: Cc1ccc(-c2ccc3c(ccc4sc5c(c43)NC[C@@H](C)NC5=O)n2)cn1

SMILES: CN(C)CCOc1ccc(-c2nc(-c3ccncc3)c(-c3ccc4c(c3)CC/C4=N\O)[nH]2)cc1
% of control [5]: 86%
% of control [6]: 58%

SMILES: N#Cc1cccc(-c2c[nH]c3ncnc(N4CCOCC4)c23)c1
% of control [7]: 100%

SMILES: CNC(=O)Nc1ccc(-c2nc(N3CC4CCC(C3)O4)c3cnn(C4CCC5(CC4)OCCO5)c3n2)cc1
% of inhibition [8]: 2%

SMILES: C=CC(=O)Nc1ccc(C(=O)Nc2[nH]nc3c2CN(C(=O)N[C@H](CN(C)C)c2ccccc2)C3(C)C)cc1
% of engagement [9]: -3.1%
